Results from paper PMC6753678, “Fueling Open Innovation for Malaria Transmission-Blocking Drugs: Hundreds of Molecules Targeting Early Parasite Mosquito Stages” (Frontiers in Microbiology, 2019).
Where two headings read alike, the source gives them in different places.

Assays:
HepG2 cells = assay: HepG2 cytotoxicity assay; settings: for IC50: read-out: HepG2 cytotoxicity assay IC50, dose response confirmation; for Pb ODA (this manuscript) HepG2 cytoxicity: HepG2 cytotoxicity listed with the Pb ODA data set (this manuscript)
In short: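 Cells at 2,500 per well in MEM with 10% fetal bovine serum and 1% NEAA were exposed to test compounds for 48 h at 37°C, 5% CO2. Viability was read by fluorescence, with percent inhibition calculated against 50 μM doxorubicin (positive) and DMSO (negative) controls.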

[1] = system: P. berghei ookinete development; settings: for % inhibition, Replicate A / % inhibition, Replicate B: primary screen at 1 μM
[2] = system: 3D7-strain P. falciparum asexual parasites; assay: P. falciparum asexual growth inhibition assay (Pf GIA); format: cell-based, Plasmodium falciparum; settings: dose response confirmation; read-out: Pf asexual growth inhibition assays IC50
In short: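 3D7 parasites at 0.25% parasitemia, 2% hematocrit were exposed to compounds in dose response for 72 h at 37°C under 5% CO2, 5% O2. Viability read as parasite LDH activity (nitro blue tetrazolium, A650) after freeze-thaw; inhibition scaled to chloroquine (50 μM) and DMSO controls, mean of three biological replicates.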

[3] = unified HepG2 value across the three screens
[4] = read-out: Pb ODA IC50, this manuscript
[5] = read-out: Pb Ookinete development assay IC50, dose response confirmation
[6] = read-out: Pb ODA (this manuscript) IC50, P. berghei ookinete development assay, this manuscript
[7] = HepG2 values of the three screens unified

| SMILES | IC50 (HepG2 cells) [nM] | Unified cytotox (HepG2 cells; [3]) [µM] | Is compound selective in assay? Pb ODA active? ([1]; 1: YES, 0: NO) | % inhibition, Replicate A [1] [%] | % inhibition, Replicate B [1] [%] | IC50 [1, 4] [nM] | IC50 [1, 5] [nM] | IC50 [2] [nM] | Pb ODA (this manuscript) HepG2 cytoxicity (HepG2 cells) [µM] | Is compound selective in assay? Pb ODA active? [1] | IC50 [1, 6] [nM] | Unified cytotox (HepG2 cells; [7]) [µM] | HepG2 cytoxicity (Pb ODA, this manuscript) (HepG2 cells) [µM] |
| --- | --- | --- | --- | --- | --- | --- | --- | --- | --- | --- | --- | --- | --- |
| COc1ccc2nc(-c3cc(-c4ccc(NC(C)=O)cc4)cnc3N)[nH]c2c1 [TCMDC-135365] | 12000 | 12.02 | 1 (1: YES) | 88.78 | 104.70 | 440 | 442 | 1280 | – | – | – | – | – |
| COc1cc(F)c2ncc(C#N)c(CCN3CCC(NCc4ccc5c(c4)OCCO5)CC3)c2c1.Cl [TCMDC-135367] | 38900 | 38.90 | 1 (1: YES) | 88.34 | 59.17 | 2170 | 2170 | 640 | – | – | – | – | – |
| Cc1cc(SC(C)(C)C)cc2c(Cl)c(C(N)=O)cnc12 [TCMDC-135415] | 1360 | 1.36 | 0 (0: NO) | 28.78 | 60.54 | 2710 | 2710 | 69 | – | – | – | – | – |
| Cc1[nH]c2ccc(-c3ccccc3)cc2c(=O)c1Br [TCMDC-135426] | 100000 | 100.00 | 1 (1: YES) | 84.59 | 99.51 | 1250 | 1250 | 136 | – | – | – | – | – |
| C=Cc1ccc(-c2c(C)[nH]c(C)c(Br)c2=O)cc1 [TCMDC-135433] | 57500 | – | – | 31.67 | 64.44 | – | 1240 | 433 | 57.54 | 1 (key: 1: YES; 0: NO) | 1240 | – | – |
| CCCCc1ccc(-c2ccc3[nH]c(C)c(Br)c(=O)c3c2)cc1 [TCMDC-135463] | 10000 | 10.00 | 0 (0: NO) | 56.53 | 70.28 | 2990 | 3000 | 77 | – | – | – | – | – |
| COc1ccc2ncc(F)c(CCN3CCC(NCc4ccc5c(c4)CCO5)CC3)c2n1.Cl [TCMDC-135491] | 31600 | – | – | 14.40 | 53.74 | – | 3390 | 879 | 31.62 | 0 (key: 1: YES; 0: NO) | 3390 | – | – |
| O=C(NCC1CC1)C1CCN(C(c2ccc(Cl)cc2)c2ccc(Cl)cc2)CC1 [TCMDC-135522] | 100000 | 100.00 | 1 (1: YES) | 38.16 | 71.31 | – | 1590 | 305 | – | – | – | – | – |
| Cc1[nH]c(C)c(-c2ccc(Nc3ccc(C(F)(F)F)cn3)cc2)c(=O)c1Br [TCMDC-135546] | 980 | – | – | 85.12 | 90.38 | – | 5.45 | 14 | 0.98 | 1 (key: 1: YES; 0: NO) | – | – | – |
| Cc1[nH]c(C)c([N+](=O)[O-])c(=O)c1-c1ccc(Oc2ccc(OC(F)(F)F)cc2)cc1 [TCMDC-135555] | 100000 | – | – | 67.14 | 51.32 | – | 2810 | 177 | 100.00 | 1 (key: 1: YES; 0: NO) | 2810 | – | – |
| COc1cc(F)c2ncc(Cl)c(CCN3CCC(NCc4ccc5c(c4)NC(=O)CS5)CC3)c2c1.Cl [TCMDC-135620] | 10600 | 10.59 | 1 (1: YES) | 131.37 | 63.52 | 470 | 467 | 15 | – | – | – | – | – |
| COc1cc(F)c2ncc(Cl)c(CCN3CCC(NCc4ccc5c(n4)NC(=O)CO5)CC3)c2c1.Cl [TCMDC-135621] | 27200 | – | – | 69.33 | 64.08 | – | 1270 | 2590 | 27.23 | 1 (key: 1: YES; 0: NO) | – | – | – |
| COc1cc(F)c2ncc(Cl)c(CCN3CCC(NCc4ccc5c(c4)NC(=O)CO5)CC3)c2c1.Cl [TCMDC-135623] | 12300 | – | – | 70.96 | 86.73 | – | 541 | 339 | 12.30 | 1 (key: 1: YES; 0: NO) | 540 | – | – |
| COc1ccc2ncc(F)c(CCN3C4CCC3CC(NCc3ccc5c(c3)OCCO5)C4)c2n1.Cl (stereo not drawn) [TCMDC-135638] | 39800 | – | – | 30.43 | 54.56 | – | 4240 | 995 | 39.81 | 0 (key: 1: YES; 0: NO) | 4240 | – | – |
| COc1ccc2ncc(C#N)c(CCN3CCC(NCc4ccc5c(c4)NC(=O)CO5)CC3)c2c1.Cl [TCMDC-135645] | 38900 | – | – | 122.09 | 92.16 | – | 457 | 553 | 38.90 | 1 (key: 1: YES; 0: NO) | 460 | – | – |
| COc1ccc(CCc2ccc(-c3c(C)[nH]c(C)c(Cl)c3=O)cc2)cc1 [TCMDC-135654] | 100000 | – | 1 (1: YES) | 86.19 | 104.99 | 140 | 143 | 20 | – | – | – | 100.00 | – |
| COc1ccc(C#Cc2ccc(-c3c(C)[nH]c(C)c(Cl)c3=O)cc2)cc1 [TCMDC-135655] | 100000 | – | 1 (1: YES) | 78.44 | 70.65 | 1160 | 1160 | 73 | – | – | – | 100.00 | – |
| Cc1[nH]c(C)c(-c2ccc(OCc3cccc(C(F)(F)F)c3)nc2)c(=O)c1Br [TCMDC-135656] | 8610 | – | 1 (1: YES) | 92.61 | 102.80 | 110 | 106 | 41 | – | – | – | 8.61 | 8.61 |
| Cc1[nH]c(C)c(-c2ccc(OCc3ccc(F)cc3)nc2)c(=O)c1Br [TCMDC-135657] | 100000 | – | 1 (1: YES) | 61.60 | 80.51 | 600 | 597 | 173 | – | – | – | 100.00 | – |
| Cc1[nH]c(C)c(-c2ccc(OCc3cc(F)cc(F)c3)nc2)c(=O)c1Cl [TCMDC-135676] | 7850 | – | 0 (0: NO) | 78.17 | 102.44 | 2070 | 2070 | 36 | – | – | – | 7.85 | 7.85 |
| Cc1[nH]c(C)c(-c2ccc(-c3ccc(OC(F)(F)F)cc3)nc2)c(=O)c1Cl [TCMDC-135677] | 23700 | – | 1 (1: YES) | 103.64 | 93.64 | 270 | 265 | 397 | – | – | – | 23.71 | 23.71 |
| Cc1[nH]c(C)c(-c2ccc(CCc3ccc(N)cc3)cc2)c(=O)c1Cl [TCMDC-135678] | 100000 | – | 1 (1: YES) | 46.90 | 71.02 | 1090 | 1090 | 279 | – | – | – | 100.00 | – |
| Cc1[nH]c(C)c(-c2ccc(OCc3cc(F)cc(F)c3)nc2)c(=O)c1Br [TCMDC-135683] | 25400 | – | 1 (1: YES) | 82.45 | 85.99 | 410 | 409 | 188 | – | – | – | 25.41 | 25.41 |
| COc1nc2c(CCN3CCC(NCc4ccc5c(n4)NC(=O)CO5)CC3)c(Cl)cnc2cc1F.Cl [TCMDC-135766] | 42700 | – | – | 65.11 | 58.19 | – | 3720 | 2740 | 42.66 | 1 (key: 1: YES; 0: NO) | 3720 | – | – |
| COc1nc2c(CCN3CCC(NCc4ccc5c(c4)NCCO5)CC3)c(Cl)cnc2cc1F.Cl [TCMDC-135768] | 14400 | – | – | 14.93 | 54.54 | – | 3540 | 584 | 14.45 | 0 (key: 1: YES; 0: NO) | 3540 | – | – |
